The target in data set [1] is mTOR (Homo sapiens, UniProt P42345). Put plainly: mTOR enzyme assay (DELFIA format, His6-S6K substrate). Conditions: read-out: mTOR Kinase Median IC50. In kind it is biochemical.
The target in data set [2] is PI3Kα (Homo sapiens, UniProt P42336). Put plainly: PI3K-alpha fluorescence polarization assay. In kind it is biochemical. To be noted: read-out: PI3Kα Median IC50.
For data set [3], the target named is PI3Kγ (Homo sapiens, UniProt P48736). Put plainly: PI3K-gamma fluorescence polarization assay. Type of data set: biochemical. To be noted: read-out: PI3Kγ Median IC50.
PI3Kγ, sequence (P48736 whole entry, species assumed): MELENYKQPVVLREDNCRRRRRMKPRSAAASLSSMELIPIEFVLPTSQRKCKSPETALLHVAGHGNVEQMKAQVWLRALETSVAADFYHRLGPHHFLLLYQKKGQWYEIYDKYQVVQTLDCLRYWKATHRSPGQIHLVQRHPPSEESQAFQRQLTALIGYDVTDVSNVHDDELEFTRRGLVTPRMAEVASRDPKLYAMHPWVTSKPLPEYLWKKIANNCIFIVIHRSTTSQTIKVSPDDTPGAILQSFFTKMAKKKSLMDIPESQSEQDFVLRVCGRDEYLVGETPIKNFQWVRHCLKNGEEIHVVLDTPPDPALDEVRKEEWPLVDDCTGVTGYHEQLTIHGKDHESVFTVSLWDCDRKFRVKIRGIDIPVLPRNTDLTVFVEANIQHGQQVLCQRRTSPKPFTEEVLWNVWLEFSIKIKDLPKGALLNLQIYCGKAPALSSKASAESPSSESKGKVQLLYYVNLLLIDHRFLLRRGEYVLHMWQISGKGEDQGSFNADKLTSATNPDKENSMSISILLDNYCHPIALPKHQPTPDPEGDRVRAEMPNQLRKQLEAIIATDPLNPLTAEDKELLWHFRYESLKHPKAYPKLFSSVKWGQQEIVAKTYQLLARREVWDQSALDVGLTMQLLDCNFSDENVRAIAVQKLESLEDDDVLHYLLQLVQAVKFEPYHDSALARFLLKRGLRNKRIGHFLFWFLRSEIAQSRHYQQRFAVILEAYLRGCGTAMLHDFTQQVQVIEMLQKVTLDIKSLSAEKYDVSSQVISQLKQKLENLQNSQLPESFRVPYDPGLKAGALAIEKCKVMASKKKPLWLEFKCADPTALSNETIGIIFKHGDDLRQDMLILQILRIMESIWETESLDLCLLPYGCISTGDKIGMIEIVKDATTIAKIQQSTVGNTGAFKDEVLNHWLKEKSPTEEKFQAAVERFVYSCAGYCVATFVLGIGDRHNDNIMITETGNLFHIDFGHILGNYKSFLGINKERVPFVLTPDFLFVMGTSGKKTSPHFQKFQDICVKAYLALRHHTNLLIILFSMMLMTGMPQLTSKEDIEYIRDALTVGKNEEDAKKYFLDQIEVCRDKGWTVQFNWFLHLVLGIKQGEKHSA

Some results are limits rather than exact numbers.

PI3Kα, sequence (P42336 whole entry, species assumed): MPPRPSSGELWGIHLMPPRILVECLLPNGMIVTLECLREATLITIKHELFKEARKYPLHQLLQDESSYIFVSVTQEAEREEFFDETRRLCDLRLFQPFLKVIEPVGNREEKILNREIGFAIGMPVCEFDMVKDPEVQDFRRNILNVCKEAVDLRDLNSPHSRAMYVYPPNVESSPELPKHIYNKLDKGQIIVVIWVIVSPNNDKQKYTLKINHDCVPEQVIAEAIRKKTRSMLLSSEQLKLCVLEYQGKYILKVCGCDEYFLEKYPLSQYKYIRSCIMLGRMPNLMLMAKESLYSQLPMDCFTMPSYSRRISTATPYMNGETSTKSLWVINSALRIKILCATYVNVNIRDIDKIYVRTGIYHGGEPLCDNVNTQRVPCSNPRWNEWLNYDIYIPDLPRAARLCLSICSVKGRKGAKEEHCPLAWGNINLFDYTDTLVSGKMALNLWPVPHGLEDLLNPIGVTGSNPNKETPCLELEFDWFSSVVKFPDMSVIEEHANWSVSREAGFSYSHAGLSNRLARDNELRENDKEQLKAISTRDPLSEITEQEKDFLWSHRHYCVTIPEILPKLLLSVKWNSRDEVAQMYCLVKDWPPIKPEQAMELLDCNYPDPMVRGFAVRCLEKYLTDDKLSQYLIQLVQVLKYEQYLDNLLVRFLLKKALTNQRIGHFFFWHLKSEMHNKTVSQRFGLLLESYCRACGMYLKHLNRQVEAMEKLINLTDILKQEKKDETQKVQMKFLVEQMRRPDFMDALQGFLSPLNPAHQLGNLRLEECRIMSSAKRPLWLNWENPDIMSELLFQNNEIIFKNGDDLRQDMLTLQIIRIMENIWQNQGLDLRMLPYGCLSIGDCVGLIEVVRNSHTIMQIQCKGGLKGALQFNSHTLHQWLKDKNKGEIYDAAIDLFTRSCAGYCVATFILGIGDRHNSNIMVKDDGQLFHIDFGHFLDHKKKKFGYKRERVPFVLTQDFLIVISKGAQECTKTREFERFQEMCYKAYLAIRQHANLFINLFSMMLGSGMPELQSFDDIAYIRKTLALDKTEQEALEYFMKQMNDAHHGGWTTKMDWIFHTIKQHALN
PI3Kα, sequence (P27986 whole entry partner, species assumed): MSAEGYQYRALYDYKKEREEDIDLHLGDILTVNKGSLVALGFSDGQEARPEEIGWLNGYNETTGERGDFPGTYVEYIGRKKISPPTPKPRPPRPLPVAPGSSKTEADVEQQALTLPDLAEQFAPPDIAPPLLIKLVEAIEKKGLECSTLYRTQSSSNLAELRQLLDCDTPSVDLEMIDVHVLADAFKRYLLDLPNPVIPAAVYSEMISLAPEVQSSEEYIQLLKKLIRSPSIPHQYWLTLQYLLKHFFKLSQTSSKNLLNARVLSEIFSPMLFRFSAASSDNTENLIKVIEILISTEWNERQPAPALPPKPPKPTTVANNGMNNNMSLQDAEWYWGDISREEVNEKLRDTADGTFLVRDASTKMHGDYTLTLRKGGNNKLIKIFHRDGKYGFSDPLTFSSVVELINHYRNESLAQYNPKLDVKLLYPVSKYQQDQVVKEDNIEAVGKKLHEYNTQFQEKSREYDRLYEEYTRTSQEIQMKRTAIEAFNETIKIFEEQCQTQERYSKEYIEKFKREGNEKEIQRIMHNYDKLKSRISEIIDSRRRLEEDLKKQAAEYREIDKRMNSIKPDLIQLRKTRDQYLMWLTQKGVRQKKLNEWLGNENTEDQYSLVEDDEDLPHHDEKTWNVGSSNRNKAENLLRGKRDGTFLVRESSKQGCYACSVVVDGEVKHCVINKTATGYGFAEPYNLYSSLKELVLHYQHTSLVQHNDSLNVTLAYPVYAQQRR

In turn, `Cn1cc(/C=C2\Oc3ccc(N)cc3C2=O)c2c(-c3ccccc3)ccnc21` [Compound 58, (2Z)-5-amino-2-[(1-methyl-4-phenyl-1H-pyrrolo[2,3-b]pyridin-3-yl)methylene]-1-benzofuran-3(2H)-one] gave a melting point of 232 to 239 °C. In addition, the IC50 in data set [1] was determined as 16.5 nM. Moreover, the IC50 in data set [2] was found to be 199 nM. For the same compound, the IC50 in data set [3] was 966 nM.
Compound `Cn1cc(/C=C2\Oc3ccc(NC(=O)OCCO)cc3C2=O)c2c(-c3ccccc3)ccnc21` [Compound 60, 2-hydroxyethyl {(2Z)-2-[(1-methyl-4-phenyl-1H-pyrrolo[2,3-b]pyridin-3-yl)methylene]-3-oxo-2,3-dihydro-1-benzofuran-5-yl}carbamate] displayed a melting point of 233 to 235 °C. Further, the IC50 in data set [1] came out at 58.5 nM. For the same compound, the IC50 in data set [2] was greater than 10000 nM. In addition, in data set [3], the IC50 was greater than 10000 nM.
The compound `Cn1cc(/C=C2\Oc3cc(O)cc(O)c3C2=O)c2c(-c3ccc(Cl)nc3)ccnc21` [Compound 63, (2Z)-2-{[4-(6-chloropyridin-3-yl)-1-methyl-1H-pyrrolo[2,3-b]pyridin-3-yl]methylene}-4,6-dihydroxy-1-benzofuran-3(2H)-one] yielded a melting point of 340 °C. The half-inhibitory concentration (IC50) in data set [1] came to 1.5 nM. Also, the IC50 in data set [2] turned out to be 8 nM. For the same compound, the IC50 in data set [3] amounted to 24 nM.
As to `Cn1cc(/C=C2\Oc3cc(O)cc(O)c3C2=O)c2c(-c3ccc(Cl)cc3)ccnc21` [Compound 64, (2Z)-2-{[4-(4-chlorophenyl)-1-methyl-1H-pyrrolo[2,3-b]pyridin-3-yl]methylene}-4,6-dihydroxy-1-benzofuran-3(2H)-one], the melting point was 345 °C. In addition, the IC50 in data set [1] is 1.8 nM. The IC50 in data set [2] was 29 nM. Besides, in data set [3], the IC50 was 81 nM.
Taken in the same sequence, the figures for `Cn1cc(/C=C2\Oc3cc(O)cc(O)c3C2=O)c2c(N3CCCCCC3)ccnc21` [Compound 65, (2Z)-2-[(4-azepan-1-yl-1-methyl-1H-pyrrolo[2,3-b]pyridin-3-yl)methylene]-4,6-dihydroxy-1-benzofuran-3(2H)-one] were 297 to 300 °C, 0.6 nM, 41 nM and 60 nM.
Taken in the same sequence, the figures for `COc1cccc(-c2ccnc3c2c(/C=C2\Oc4cc(O)cc(O)c4C2=O)cn3C)c1` [Compound 66, (2Z)-4,6-dihydroxy-2-{[4-(3-methoxyphenyl)-1-methyl-1H-pyrrolo[2,3-b]pyridin-3-yl]methylene}-1-benzofuran-3(2H)-one] were 297 to 300 °C, 1.4 nM, 32 nM and 61 nM.
Taken in the same sequence, the figures for `Cn1cc(/C=C2\Oc3cc(O)cc(O)c3C2=O)c2c(-c3ccc(CO)cc3)ccnc21` [Compound 67, (2Z)-4,6-dihydroxy-2-({4-[4-(hydroxymethyl)phenyl]-1-methyl-1H-pyrrolo[2,3-b]pyridin-3-yl}methylene)-1-benzofuran-3(2H)-one] were greater than 330 °C, 0.2 nM, 7 nM and 21 nM.
Consider `Cn1cc(/C=C2\Oc3cccc(NC(=O)C(C)(C)C)c3C2=O)c2c(-c3ccccc3)ccnc21` [Compound 68, 2,2-dimethyl-N-{(2Z)-2-[(1-methyl-4-phenyl-1H-pyrrolo[2,3-b]pyridin-3-yl)methylene]-3-oxo-2,3-dihydro-1-benzofuran-4-yl}propanamide], for which the melting point is 251 to 253 °C. Also, the IC50 in data set [1] was greater than 4000 nM. For the same compound, in data set [2], the IC50 is greater than 10000 nM. In data set [3], the IC50 stood at 1800 nM.
The corresponding values for `COc1ccc(-c2ccnc3c2c(/C=C2\Oc4cccc(O)c4C2=O)cn3C)cn1` [Compound 71, (2Z)-4-hydroxy-2-{[4-(6-methoxypyridin-3-yl)-1-methyl-1H-pyrrolo[2,3-b]pyridin-3-yl]methylene}-1-benzofuran-3(2H)-one] are 242 to 244 °C, 16 nM, 62 nM and 249 nM.
The corresponding values for `Cn1cc(/C=C2\Oc3cc(O)cc(O)c3C2=O)c2c(-c3ccc(S(C)(=O)=O)cc3)ccnc21` [Compound 72, (2Z)-4,6-dihydroxy-2-({1-methyl-4-[4-(methylsulfonyl)phenyl]-1H-pyrrolo[2,3-b]pyridin-3-yl}methylene)-1-benzofuran-3(2H)-one] are 276 to 286 °C, 0.7 nM, 5 nM and 66 nM.
The corresponding values for `Cn1cc(/C=C2\Oc3cc(O)cc(O)c3C2=O)c2c(-c3cccc(S(C)(=O)=O)c3)ccnc21` [Compound 74, (2Z)-4,6-dihydroxy-2-({1-methyl-4-[3-(methylsulfonyl)phenyl]-1H-pyrrolo[2,3-b]pyridin-3-yl}methylene)-1-benzofuran-3(2H)-one] are 315 to 320 °C, 1.6 nM, 14 nM and 132 nM.
`Cn1cc(/C=C2\Oc3cccc(O)c3C2=O)c2c(-c3cccc(S(C)(=O)=O)c3)ccnc21` [Compound 75, (2Z)-4-hydroxy-2-({1-methyl-4-[3-(methylsulfonyl)phenyl]-1H-pyrrolo[2,3-b]pyridin-3-yl}methylene)-1-benzofuran-3(2H)-one] gave a melting point of 310 to 318 °C. Also, in data set [1], the IC50 amounted to 10.3 nM. In data set [2], the IC50 amounted to 92 nM. Further, the IC50 in data set [3] is 319 nM.
In turn, `Cn1cc(/C=C2\Oc3cccc(O)c3C2=O)c2c(-c3ccc(CO)nc3)ccnc21` [Compound 76, (2Z)-4-hydroxy-2-({4-[6-(hydroxymethyl)pyridin-3-yl]-1-methyl-1H-pyrrolo[2,3-b]pyridin-3-yl}methylene)-1-benzofuran-3(2H)-one] registered a melting point of 270 to 275 °C. In addition, in data set [1], the IC50 amounted to 8.5 nM. For the same compound, the IC50 in data set [2] amounted to 41 nM. The IC50 in data set [3] worked out at 132 nM.
Taken in the same sequence, the figures for `CC1CN(c2ccnc3c2c(/C=C2\Oc4cccc(O)c4C2=O)cn3C)CC(C)O1` (stereo not shown) [Compound 93, (2Z)-2-{[4-(2,6-dimethylmorpholin-4-yl)-1-methyl-1H-pyrrolo[2,3-b]pyridin-3-yl]methylene}-4-hydroxy-1-benzofuran-3(2H)-one] were 280 °C, 1.3 nM, 85 nM and 124 nM.
Take `Cn1cc(/C=C2\Oc3cc(O)cc(O)c3C2=O)c2c(Oc3ccccc3)ccnc21` [Compound 94, (2Z)-4,6-dihydroxy-2-[(1-methyl-4-phenoxy-1H-pyrrolo[2,3-b]pyridin-3-yl)methylene]-1-benzofuran-3(2H)-one]: the melting point was 330 to 332 °C. Moreover, the half-inhibitory concentration (IC50) in data set [1] came out at 10.5 nM. Also, in data set [2], the IC50 came to 43 nM. Besides, in data set [3], the half-maximal inhibitory concentration (IC50) came to 351 nM.
Taken in the same sequence, the figures for `Cn1cc(/C=C2\Oc3cccc(O)c3C2=O)c2c(O)ccnc21` [Compound 95, (2Z)-4-hydroxy-2-[(4-hydroxy-1-methyl-1H-pyrrolo[2,3-b]pyridin-3-yl)methylene]-1-benzofuran-3(2H)-one] were 325 °C, 2000 nM, 479 nM and 3240 nM.
